This is an account of results in patent publication US12077503B2, “Substituted cyclic amides and their use as herbicides” (FMC CORPORATION, priority 2015, dated 2024).

What all share (type): in vivo
In one assay the test system is Kochia (Kochia scoparia). Put plainly: Test A preemergence. Conditions: Bassia scoparia, pre-emergence, 240 h, read-out: Plant response rating, Kochia. The method in brief: (§1)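 Ratings of 0 (no effect) to 100 (complete control) come from visual comparison with untreated controls roughly 10 d after treatment. Test chemicals, formulated in a non-phytotoxic solvent mixture with surfactant, were applied either as a preemergence directed soil spray on seeded soil or postemergence to one- to two-leaf plants 2 to 10 cm tall.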

Assay [1] relates to barnyardgrass (Echinochloa crus-galli). Put plainly: Test A preemergence. Conditions: Echinochloa crus-galli, pre-emergence, 240 h, read-out: Plant response rating, Barnyardgrass. The method in brief: as §1
For assay [2], the system named is giant foxtail (Setaria faberii). The experiment in a line: Test A preemergence. Particulars: Setaria faberi, pre-emergence, 240 h, read-out: Plant response rating, Foxtail, Giant. The method in brief:
as §1

Assay [3] has as its system pigweed (Amaranthus retroflexus). Put plainly: Test A preemergence. Particulars: Amaranthus retroflexus, pre-emergence, 240 h, read-out: Plant response rating, Pigweed.
Assay [4] concerns ragweed (common ragweed, Ambrosia elatior). The experiment in a line: Test A preemergence. Particulars: Ambrosia artemisiifolia, pre-emergence, 240 h, read-out: Plant response rating, Ragweed. The method in brief: as §1
The subject of assay [5] is ryegrass, Italian (Italian ryegrass, Lolium multiflorum). The experiment in a line: Test A preemergence. Conditions: Lolium multiflorum, pre-emergence, 240 h, read-out: Plant response rating, Ryegrass, Italian. The method in brief:
as §1

Assay [6] relates to barnyardgrass (Echinochloa crus-galli). Put plainly: Test A postemergence. Particulars: Echinochloa crus-galli, post-emergence, 240 h, read-out: Plant response rating, Barnyardgrass. The method in brief:
as §1

Assay [7] relates to giant foxtail (Setaria faberii). Put plainly: Test A postemergence. Conditions: Setaria faberi, post-emergence, 240 h, read-out: Plant response rating, Foxtail, Giant. The method in brief:
as §1

Assay [8] concerns pigweed (Amaranthus retroflexus). The experiment in a line: Test A postemergence. Particulars: Amaranthus retroflexus, post-emergence, 240 h, read-out: Plant response rating, Pigweed. In outline: as §1
In assay [9] the test system is ryegrass, Italian (Italian ryegrass, Lolium multiflorum). The experiment in a line: Test A postemergence. Conditions: Lolium multiflorum, post-emergence, 240 h, read-out: Plant response rating, Ryegrass, Italian. In outline:
as §1

The subject of assay [10] is barnyardgrass (Echinochloa crus-galli). The experiment in a line: Test B flooded paddy test. Conditions: Echinochloa crus-galli, Flood, 250 g ai/ha; scale of 0 to 100 where 0 is no effect and 100 is complete control; read-out: Barnyardgrass plant response rating. The method in brief: (§2)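 Rating scale 0–100 (visual, vs untreated controls) after a 13–15 d greenhouse period; application to the flood layer, 3 cm above soil and maintained; plants at 2-leaf stage when treated.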

Assay [11] has as its system ducksalad (Heteranthera limosa). Put plainly: Test B flooded paddy test. Particulars: Heteranthera limosa, Flood, 250 g ai/ha; scale of 0 to 100 where 0 is no effect and 100 is complete control; read-out: Ducksalad plant response rating. The method in brief:
as §2

Another assay deals with rice (Oryra sativa). The experiment in a line: Test B flooded paddy test. Conditions: Oryza sativa, Flood, 250 g ai/ha; scale of 0 to 100 where 0 is no effect and 100 is complete control; read-out: Rice plant response rating. The method in brief: as §2
For assay [12], the system named is sedge, umbrella (small-flower umbrella sedge, Cyperus difformis). Put plainly: Test B flooded paddy test. Particulars: Cyperus difformis, Flood, 250 g ai/ha; scale of 0 to 100 where 0 is no effect and 100 is complete control; read-out: Sedge, Umbrella plant response rating. The method in brief: as §2
Where [13] appears, read: 125 g ai/ha, preemergence, visual rating after approx. 10 d, 0 to 100 scale where 0 is no effect and 100 is complete control.
Where [14] appears, read: Preemergence, 31 g ai/ha, 0 to 100 scale (0 no effect, 100 complete control).
The mark [15] stands for this setting: 125 g ai/ha, postemergence, visual injury after approximately 10 d, 0 to 100 scale (0 no effect, 100 complete control).
Where [16] appears, read: Postemergence, 31 g ai/ha, visual injury after approx. 10 d, 0 to 100 scale, 0 no effect, 100 complete control.

As to `Cc1cc(F)cc([C@H]2CN(C)C(=O)[C@@H]2C(=O)Nc2ccc(F)c(F)c2F)c1` [Compound 801], the pest or weed control at 125 g/ha in the assay with Kochia (Kochia scoparia) (setting [13]) was 70%; in [1] (setting [13]), 90%; in [2] (setting [13]), 90%; in assay [3] (setting [13]) it was 30%; in assay [4] (setting [13]), 60%; in [5] (setting [13]), 20%. Moreover, the pest or weed control at 125 g/ha in assay [6] (setting [15]) was 90%; in assay [7] (setting [15]), 90%; in assay [8] (setting [15]) it was 30%; in assay [9] (setting [15]) it was 60%. In addition, the pest or weed control at 31 g/ha with Kochia (Kochia scoparia) (setting [14]) was 40%; in assay [1] (setting [14]), 80%; in assay [2] (setting [14]), 80%; in assay [3] (setting [14]), 30%; in assay [4] (setting [14]), 20%; in assay [5] (setting [14]), 0%. The pest or weed control at 31 g/ha in assay [6] (setting [16]) worked out at 80%; in assay [7] (setting [16]) it was 70%; in assay [8] (setting [16]), 30%; in assay [9] (setting [16]), 0%. The pest or weed control at 250 g/ha in assay [10] is 90%; in assay [11] it was 90%; in the assay with rice (Oryra sativa), 30%; in assay [12], 40%.
